Experimental findings from patent US8946273B2, “S-Triazolyl alpha-mercapto acetanilides as inhibitors of HIV reverse transcriptase” (priority 2011, dated 2015) are described below.

Like-named read-outs stand apart in the source and are kept apart here.

Assay [1] concerns the target mutant HIV reverse transcriptases (Human immunodeficiency virus type 1, UniProt P12497, Y768C, cells depend on it). The assay is classed as cell-based.
Assay [2] concerns the target mutant HIV reverse transcriptases (Human immunodeficiency virus type 1, UniProt P12497, Y775L, cells depend on it). Type of assay: cell-based.
In the next assay the test system is wild type HIV-1. Briefly: microbe, parasite or virus in culture. Type of assay: cell-based, human immunodeficiency virus type 1 (HIV-1).
Assay [3] has as its target T1, wild-type HIV reverse transcriptase (Human immunodeficiency virus type 1 group M subtype B, UniProt P04585).
T1 construct: wild-type and four mutant HIV reverse transcriptases
Briefly: Activity on wild type reverse transcriptase (Table 1 IC50 WT). Type of assay: biochemical. Here is the method:
Using similar methods as described above, 2-[5-bromo-4-(4-cyclopropylnaphthalen-1-yl)-4H-[1,2,4]triazol-3-ylsulfanyl]-N-(2-methyl-4-sulfamoylphenyeacetamide and 2-[5-bromo-4-(4-ethylnaphthalen-1-yl)-4H-[1,2,4]triazol-3-ylsulfanyl]-N-(2-chloro-4-sulfamoylphenyl)-acetamide were synthesized, as were the N-4-carbamyl analog, 2-[5-bromo-4-(4-ethyl-naphthalen-1-yl)-4H-[1,2,4]triazol-3-ylsulfanyl]-N-(2-chloro-4-carbamoylphenyl)-acetamide and the N-4-carboxyl analog. Each of the compounds was tested against a panel of mutant HIV reverse transcriptases, including 20 of the 22 of the mutants that are found in about 2% or more of the patient samples that are resistant to the most widely used non-nucleoside HIV-RT inhibitor efavirenz ((4S)-6-chloro-4-(cyclopropylethynyl)-1,4-dihydro-4-(trifluoromethyl)-2H-3,1-benzoxazin-2-one). […] In most cases both criteria were met. […] […].
Compounds of the invention were tested against the wild-type and four mutant HIV reverse transcriptases. The results are listed in Table 1 as EC50 (nM) and IC50 (nM). In the Table, A represents <50 nM, B is between 50 and 100 nM, and C is >100 nM. ND is not determined.

Where [4] appears, read: Human immunodeficiency virus 1, Hela-JC53, read-out: EC50 WT.
The mark [5] stands for this setting: read-out: EC50 WT, wild-type (WT) HIV-1.
Where [6] appears, read: read-out: IC50 WT RT, wild-type (WT) RT.

Broadly, the EC50 is the concentration needed to bring the measured effect to its halfway point. The term IC50 denotes the concentration needed to halve the response being measured. As for `Cc1ccc(-n2c(SCC(=O)Nc3ccc(C(=O)O)cc3Cl)nnc2C(F)F)c2c1CCCC2` [compound 2], the EC50 (in assay [1]; in assay [2]; with wild type HIV-1 (setting [4])) was less than 50 nM in each case. This compound also came in with an IC50 in assay [3] of less than 50 nM.

Take `CCc1ccc(-n2c(SCC(=O)Nc3ccc(C(=O)O)cc3C)nnc2C(F)F)c2ccccc12` [compound 3]: the EC50 is 50 to 100 nM in assay [1], more than 100 nM in assay [2] and less than 50 nM with wild type HIV-1 (setting [4]). For the same compound, the IC50 in assay [3] was less than 50 nM.

For `CCc1ccc(-n2c(SCC(=O)Nc3ccc(C(=O)O)cc3Cl)nnc2C(F)F)c2ccccc12` [compound 4], the EC50 (in assay [1]; in assay [2]; in the assay with wild type HIV-1 (setting [4])) was less than 50 nM in each case. The compound further yielded an IC50 in assay [3] of less than 50 nM.

As to `Cc1cc(C(=O)O)ccc1NC(=O)CSc1nnc(C(F)F)n1-c1ccc(C)c2c1CCCC2` [compound 5], the values for the 50% effective concentration (EC50) (in assay [1]; in assay [2]; with wild type HIV-1 (setting [4])) were more than 100 nM, more than 100 nM and less than 50 nM, respectively. Besides, in assay [3], the IC50 is less than 50 nM.

Regarding `CCc1ccc(-n2c(Br)nnc2SCC(=O)Nc2ccc(C(=O)O)cc2C)c2ccccc12` [compound 6], the EC50 is less than 50 nM in assay [1], more than 100 nM in assay [2] and less than 50 nM in the assay on wild type HIV-1 (setting [4]). The compound further had an IC50 in assay [3] of less than 50 nM.

In the case of `CCc1ccc(-n2c(Br)nnc2SCC(=O)Nc2ccc(C(=O)O)cc2Cl)c2ccccc12` [compound 8], the EC50 (in assay [1]; in assay [2]; in the assay on wild type HIV-1 (setting [4])) was less than 50 nM throughout. Besides, the IC50 in assay [3] is less than 50 nM.

In the case of `CCc1ccc(-n2c(Br)nnc2SCC(=O)Nc2ccc(C(=O)O)cc2Cl)c2ccccc12` [compound 9], the concentration giving a half-maximal response (EC50) (in assay [1]; with wild type HIV-1 (setting [5])) was less than 50 nM each time.

For the compound `O=C(CSc1nnc(Br)n1-c1ccc(C2CC2)c2ccccc12)Nc1ccc(C(=O)O)cc1Cl` [compound 10], the EC50 (in assay [1]; in assay [2]; in the assay with wild type HIV-1 (setting [4])) was less than 50 nM throughout. In assay [3], this compound displayed an IC50 of less than 50 nM.

Consider `O=C(CSc1nnc(Br)n1-c1ccc(C2CC2)c2ccccc12)Nc1ccc(C(=O)O)cc1Cl` [compound 11], for which the EC50 (in assay [1]; in assay [2]; in the assay with wild type HIV-1 (setting [5])) was less than 50 nM in each case. The IC50 in assay [3] (setting [6]) is less than 50 nM.

Take `O=C(CSc1nnc(Br)n1-c1ccc(C2CC2)c2ccccc12)Nc1ccc(C(=O)O)cc1Cl` [compound 12]: the concentration for a half-maximal effect (EC50) (in assay [1]; in assay [2]; in the assay on wild type HIV-1 (setting [5])) was less than 50 nM in each case. In addition, in assay [3] (setting [6]), the IC50 is less than 50 nM.

Consider `COc1ccc2cccc(-n3c(Br)nnc3SCC(=O)Nc3ccc(C(=O)O)cc3Cl)c2c1` [compound 13], for which the EC50 (in assay [1]; in assay [2]; in the assay on wild type HIV-1 (setting [4])) was less than 50 nM each time. In assay [3], this compound returned an IC50 of less than 50 nM.

In the case of `O=C(CSc1nnc(C(F)F)n1-c1ccc(C2CC2)c2ccccc12)Nc1ccc(C(=O)O)cc1Cl` [compound 14], the EC50 (in assay [1]; in assay [2]; with wild type HIV-1 (setting [4])) was less than 50 nM in each case. The half-maximal inhibitory concentration (IC50) in assay [3] was less than 50 nM.

As for `Cc1cc(C2CC2)c2ccccc2c1-n1c(Br)nnc1SCC(=O)Nc1ccc(S(=O)(=O)O)cc1Cl` [compound 15], the EC50 in assay [1] was 50 to 100 nM; in assay [2] it was more than 100 nM; with wild type HIV-1 (setting [4]), less than 50 nM. The compound further yielded an IC50 in assay [3] of less than 50 nM.

For the compound `COc1ccc2c(C)ccc(-n3c(Br)nnc3SCC(=O)Nc3ccc(C(=O)O)cc3Cl)c2c1` [compound 18], the EC50 in assay [1] and in assay [2] was less than 50 nM in each case.

For `Cc1cc(C2CC2)cc(Cl)c1-n1c(Br)nnc1SCC(=O)Nc1ccc(C(=O)O)cc1Cl` [compound 28], the concentration giving a half-maximal response (EC50) in assay [1] and in assay [2] was less than 50 nM each time.

Turning to `COc1ccc2c(C3CC3)ccc(-n3c(Br)nnc3SCC(=O)Nc3ccc(C(=O)O)cc3Cl)c2c1` [compound 34], the EC50 (in assay [1]; in assay [2]; in the assay on wild type HIV-1 (setting [4])) was less than 50 nM each time.

As for `Cc1cc(C(=O)O)ccc1NC(=O)CSc1nnc(Br)n1-c1ccc(C2CC2)c2ccccc12` [compound 35], the EC50 in the assay on wild type HIV-1 (setting [4]) was less than 50 nM. This compound registered an IC50 in assay [3] of less than 50 nM.

As for `NS(=O)(=O)c1ccc(NC(=O)CSc2nnc(Br)n2-c2ccc(C3CC3)c3ccccc23)c(Cl)c1` [compound 39], the EC50 (in assay [1]; in assay [2]; in the assay on wild type HIV-1 (setting [5])) was less than 50 nM each time.

In the case of `NS(=O)(=O)c1ccc(NC(=O)CSc2nnc(Br)n2-c2ccc(C3CC3)c3ccccc23)c(Cl)c1` [compound 42], the EC50 (in assay [1]; in assay [2]; in the assay on wild type HIV-1 (setting [5])) was less than 50 nM throughout.

Take `Cc1cc(C)c2ccccc2c1-n1c(CF)nnc1SCC(=O)Nc1ccc(S(N)(=O)=O)cc1Cl` [compound 53]: the EC50 (in assay [1]; in assay [2]; with wild type HIV-1 (setting [4])) was less than 50 nM each time.

Consider `CC(Sc1nnc(Br)n1-c1ccc(C2CC2)c2ccccc12)C(=O)Nc1ccc(S(N)(=O)=O)cc1Cl` (stereo not drawn) [compound 76], for which the EC50 was 50 to 100 nM in assay [1] and more than 100 nM in assay [2].

In the case of `NS(=O)(=O)c1ccc(NC(=O)CSc2nnc(Br)n2-c2ccc(C3CC3)c3ccccc23)c(Cl)c1` [compound 77], the EC50 in assay [1] is 50 to 100 nM; in assay [2], more than 100 nM; in the assay with wild type HIV-1 (setting [4]), less than 50 nM.

On to `NS(=O)(=O)c1ccc(NC(=O)CSc2nnc(Br)n2-c2ccc(C3CC3)cc2)c(Cl)c1` [compound 78], for which the EC50 in assay [1] is less than 50 nM; in assay [2] it was more than 100 nM.

On to `CCc1ccc(-n2c(Br)nnc2SCC(=O)Nc2ccc(S(N)(=O)=O)cc2Cl)c2c1CCCC2` [compound 79], for which the EC50 (in assay [1]; in assay [2]; in the assay on wild type HIV-1 (setting [4])) was less than 50 nM each time.

As to `Cc1cc(S(N)(=O)=O)ccc1NC(=O)CSc1nnc(Br)n1-c1ccc(C)c2c1CCCC2` [compound 80], the EC50 (in assay [1]; in assay [2]; in the assay with wild type HIV-1 (setting [4])) was less than 50 nM in each case.

In the case of `Cc1ccc2c(C)ccc(-n3c(Br)nnc3SCC(=O)Nc3ccc(S(N)(=O)=O)cc3Br)c2c1` [compound 81], the EC50 (in assay [1]; in assay [2]; in the assay on wild type HIV-1 (setting [4])) was less than 50 nM throughout.

On to `Cc1cc(C)c2ccccc2c1-n1c(CF)nnc1SCC(=O)Nc1ccc(S(N)(=O)=O)cc1Cl` [compound 82], for which the half-maximal effective concentration (EC50) (in assay [1]; in the assay on wild type HIV-1 (setting [5])) was less than 50 nM in each case.

Turning to `CCCc1ccc(-n2c(Br)nnc2SCC(=O)Nc2ccc(S(N)(=O)=O)cc2Cl)c2ccccc12` [compound 85], the EC50 (in assay [1]; in assay [2]; in the assay with wild type HIV-1 (setting [4])) was less than 50 nM in each case.

As for `CCCc1ccc(-n2c(Br)nnc2SCC(=O)Nc2ccc(S(N)(=O)=O)cc2C)c2ccccc12` [compound 86], the EC50 (in assay [1]; in assay [2]; in the assay with wild type HIV-1 (setting [4])) was less than 50 nM each time.

Turning to `CCc1ccc(-n2c(Br)nnc2SCC(=O)Nc2ccc(S(N)(=O)=O)cc2Cl)c2ccccc12` [compound 87], the EC50 (in assay [1]; in assay [2]; in the assay with wild type HIV-1 (setting [4])) was less than 50 nM throughout.

For the compound `Cc1cc(C2CC2)ccc1-n1c(Br)nnc1SCC(=O)Nc1ccc(S(N)(=O)=O)cc1Cl` [compound 88], the EC50 (in assay [1]; in assay [2]; with wild type HIV-1 (setting [4])) was less than 50 nM throughout.

For `NS(=O)(=O)c1ccc(NC(=O)CSc2nnc(Cl)n2-c2ccc(C3CC3)c3ccccc23)c(Cl)c1` [compound 89], the EC50 (in assay [1]; in assay [2]; with wild type HIV-1 (setting [4])) was less than 50 nM throughout.

For the compound `NS(=O)(=O)c1ccc(NC(=O)CSc2nnc(Br)n2-c2ccc(C3CC3)cc2OC(F)(F)F)c(Cl)c1` [compound 90], the EC50 in assay [1] was less than 50 nM; in assay [2], 50 to 100 nM.

Regarding `NS(=O)(=O)c1ccc(NC(=O)CSc2nnc(Br)n2-c2c(Cl)cc(C3CCC3)c3ccccc23)c(Cl)c1` [compound 91], the EC50 (in assay [1]; in assay [2]; in the assay with wild type HIV-1 (setting [4])) was less than 50 nM in each case.

For the compound `Cc1cc(C2CC2)cc(Cl)c1-n1c(Br)nnc1SCC(=O)Nc1ccc(S(N)(=O)=O)cc1Cl` [compound 93], the EC50 in assay [1] and in assay [2] was less than 50 nM in each case.

For `Cc1cc(S(N)(=O)=O)ccc1NC(=O)CSc1nnc(Br)n1-c1ccc(C2CCC2)c2ccccc12` [compound 94], the EC50 in assay [1] and in assay [2] was less than 50 nM each time.

With `NS(=O)(=O)c1ccc(NC(=O)CSc2nnc(Br)n2-c2ccc(C3CCC3)c3ccccc23)c(Cl)c1` [compound 95], the half-maximal effective concentration (EC50) (in assay [1]; in assay [2]; in the assay with wild type HIV-1 (setting [4])) was less than 50 nM in each case.

For the compound `N#Cc1cccc2c(-n3c(SCC(=O)Nc4ccc(S(N)(=O)=O)cc4Cl)nnc3C(F)F)cccc12` [compound 96], the values for the EC50 in assay [1] and in assay [2] were less than 50 nM and more than 100 nM, respectively.

On to `Cc1ccc2ccccc2c1-n1c(Br)nnc1SC(C)C(=O)Nc1ccc(S(N)(=O)=O)cc1Cl` (stereo not drawn) [compound 141], for which the EC50 in the assay with wild type HIV-1 (setting [4]) is less than 50 nM. Moreover, the IC50 in assay [3] is less than 50 nM.
